# Columns and labels:
# [1] = biological target: Beta-secretase 1 (Homo sapiens, UniProt P56817); test: Inhibition of human BACE-1 using (7-Methoxycoumarin-4-acetyl-[Asn670, Leu671]-Amyloid beta/A4 precursor protein 770 fragments 667-676- (2, 4-dinitrophenyl) Lys-Arg-Arg amide trifluoroacetate salt as substrate incubated for 2 hrs by FRET-based analysis
# [2] = biological target: Cholinesterase (Homo sapiens, UniProt P06276); test: Inhibition of human BChE using butyrylthiocholine iodide as substrate preincubated for 30 mins followed by substrate addition by DTNB based Ellman's colorimetric method
# Sequence of Cholinesterase (P06276 whole entry): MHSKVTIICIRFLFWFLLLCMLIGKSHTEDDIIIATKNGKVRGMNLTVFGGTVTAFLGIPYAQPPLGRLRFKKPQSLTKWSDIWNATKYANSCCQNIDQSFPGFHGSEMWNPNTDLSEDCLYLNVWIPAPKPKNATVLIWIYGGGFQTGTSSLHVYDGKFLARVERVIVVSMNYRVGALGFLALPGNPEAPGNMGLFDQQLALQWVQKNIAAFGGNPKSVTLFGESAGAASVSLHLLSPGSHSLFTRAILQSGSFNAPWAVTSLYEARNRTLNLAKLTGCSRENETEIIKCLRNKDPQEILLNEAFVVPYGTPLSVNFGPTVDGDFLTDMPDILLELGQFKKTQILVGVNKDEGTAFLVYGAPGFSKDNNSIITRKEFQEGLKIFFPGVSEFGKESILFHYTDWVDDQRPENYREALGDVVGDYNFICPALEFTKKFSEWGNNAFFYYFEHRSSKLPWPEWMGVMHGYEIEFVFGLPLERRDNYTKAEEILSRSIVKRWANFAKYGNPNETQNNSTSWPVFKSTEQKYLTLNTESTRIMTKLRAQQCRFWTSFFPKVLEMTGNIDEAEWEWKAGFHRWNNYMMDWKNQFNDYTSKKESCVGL
# [3] = biological target: Dual specificity tyrosine-phosphorylation-regulated kinase 1A (Homo sapiens, UniProt Q13627); test: Inhibition of Dyrk1A (unknown origin) incubated for 1 hrs in presence of [gamma-33P]-ATP by microplate scintillation counter based radiometric protein kinase assay
# [4] = biological target: Acetylcholinesterase (Homo sapiens, UniProt P22303); test: Inhibition of human erythrocyte AChE using acetylthiocholine iodide as substrate preincubated for 30 mins followed by substrate addition by DTNB based Ellman's colorimetric method
# Sequence of Acetylcholinesterase (P22303 whole entry): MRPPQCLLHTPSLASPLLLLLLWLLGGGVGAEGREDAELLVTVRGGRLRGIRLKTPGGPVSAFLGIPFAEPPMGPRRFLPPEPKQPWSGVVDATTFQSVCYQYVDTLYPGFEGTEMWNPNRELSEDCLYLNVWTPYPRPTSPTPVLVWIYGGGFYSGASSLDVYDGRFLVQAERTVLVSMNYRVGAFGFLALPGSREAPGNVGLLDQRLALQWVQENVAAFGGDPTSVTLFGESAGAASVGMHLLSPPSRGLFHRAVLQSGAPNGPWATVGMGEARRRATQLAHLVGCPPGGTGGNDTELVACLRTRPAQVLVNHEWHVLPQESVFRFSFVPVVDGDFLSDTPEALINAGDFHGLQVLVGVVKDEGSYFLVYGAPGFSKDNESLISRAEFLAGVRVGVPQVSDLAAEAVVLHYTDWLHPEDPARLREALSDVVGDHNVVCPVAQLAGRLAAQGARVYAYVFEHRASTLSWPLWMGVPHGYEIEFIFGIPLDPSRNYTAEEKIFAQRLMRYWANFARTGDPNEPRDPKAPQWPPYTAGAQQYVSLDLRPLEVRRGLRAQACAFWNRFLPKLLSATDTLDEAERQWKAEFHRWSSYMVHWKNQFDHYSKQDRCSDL
# Sequence of Beta-secretase 1 (P56817 whole entry, the tested form may be a part): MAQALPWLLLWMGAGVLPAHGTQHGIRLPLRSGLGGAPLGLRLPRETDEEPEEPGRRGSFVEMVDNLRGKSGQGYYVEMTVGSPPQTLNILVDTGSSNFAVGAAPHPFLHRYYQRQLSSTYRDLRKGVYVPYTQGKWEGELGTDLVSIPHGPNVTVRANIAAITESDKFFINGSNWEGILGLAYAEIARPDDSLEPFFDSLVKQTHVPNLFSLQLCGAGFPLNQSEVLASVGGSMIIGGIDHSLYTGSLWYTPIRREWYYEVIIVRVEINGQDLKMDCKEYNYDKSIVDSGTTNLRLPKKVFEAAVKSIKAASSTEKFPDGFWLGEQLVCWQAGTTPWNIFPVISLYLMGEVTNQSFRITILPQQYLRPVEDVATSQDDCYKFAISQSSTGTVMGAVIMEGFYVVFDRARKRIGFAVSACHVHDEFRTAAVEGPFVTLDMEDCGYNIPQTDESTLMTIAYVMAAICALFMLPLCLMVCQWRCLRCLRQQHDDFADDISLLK
Structure (SMILES),IC50 [1],IC50 [2],IC50 [3],IC50 [4]
N#Cc1ccccc1NC(=O)Cn1nc(-c2ccccc2)c(-c2ccccc2)nc1=O,1480 nM,> 10000 nM,> 10000 nM,1860 nM
O=C(Cn1nc(-c2ccccc2)c(-c2ccccc2)nc1=O)Nc1cccc([N+](=O)[O-])c1,1250 nM,> 10000 nM,> 10000 nM,1120 nM
O=C(Cn1nc(-c2ccccc2)c(-c2ccccc2)nc1=O)Nc1ccc([N+](=O)[O-])cc1Cl,1830 nM,> 10000 nM,2000 nM,699 nM
O=C(Cn1nc(-c2ccccc2)c(-c2ccccc2)nc1=O)Nc1ccc(Br)cc1,1860 nM,> 10000 nM,> 10000 nM,941 nM
O=C(Cn1nc(-c2ccccc2)c(-c2ccccc2)nc1=O)Nc1ccc([N+](=O)[O-])cc1,1320 nM,> 10000 nM,> 10000 nM,1070 nM
O=C(Cn1nc(-c2ccccc2)c(-c2ccccc2)nc1=O)Nc1ccccc1[N+](=O)[O-],912 nM,> 10000 nM,> 10000 nM,734 nM
O=C(Cn1nc(-c2ccccc2)c(-c2ccccc2)nc1=O)Nc1ccc(O)cc1,1620 nM,> 10000 nM,> 10000 nM,1150 nM
O=C(Cn1nc(-c2ccccc2)c(-c2ccccc2)nc1=O)Nc1ccccc1Cl,609 nM,> 10000 nM,> 10000 nM,719 nM
Cc1ccccc1NC(=O)Cn1nc(-c2ccccc2)c(-c2ccccc2)nc1=O,742 nM,> 10000 nM,> 10000 nM,953 nM
